Assay results from ChEMBL document CHEMBL3769394, “The Importance of Being Me: Magic Methyls, Methyltransferase Inhibitors, and the Discovery of Tazemetostat” (J Med Chem, 2016).
pIC50: −log10 of the molar value. Active and inactive are the calls of the source. No cut-off for these calls is given here.

Key:
[1] = Clearance in mouse at 2 mg/kg, iv and 10 mg/kg, po by LC-MS/MS analysis; type: ADME, organism-based; settings: in vivo
[2] = AUC in mouse at 2 mg/kg, iv and 10 mg/kg, po by LC-MS/MS analysis; type: ADME, organism-based; settings: in vivo
[3] = Volume of distribution at steady state in mouse at 2 mg/kg, iv and 10 mg/kg, po by LC-MS/MS analysis; type: ADME, organism-based; settings: in vivo, read-out: Vdss
[4] = Oral bioavailability in mouse at 10 mg/kg by LC-MS/MS analysis; type: ADME, organism-based; settings: in vivo
[5] = Aqueous solubility of the compound at pH 7; type: physicochemical
[6] = target: T1, Histone-lysine N-methyltransferase EZH2 (Homo sapiens, UniProt Q15910); test: Inhibition of methyltransferase activity of human EZH2 using chicken oligonucleosomes as substrate by pull down assay
Target sequence in this assay (Q15910 whole entry): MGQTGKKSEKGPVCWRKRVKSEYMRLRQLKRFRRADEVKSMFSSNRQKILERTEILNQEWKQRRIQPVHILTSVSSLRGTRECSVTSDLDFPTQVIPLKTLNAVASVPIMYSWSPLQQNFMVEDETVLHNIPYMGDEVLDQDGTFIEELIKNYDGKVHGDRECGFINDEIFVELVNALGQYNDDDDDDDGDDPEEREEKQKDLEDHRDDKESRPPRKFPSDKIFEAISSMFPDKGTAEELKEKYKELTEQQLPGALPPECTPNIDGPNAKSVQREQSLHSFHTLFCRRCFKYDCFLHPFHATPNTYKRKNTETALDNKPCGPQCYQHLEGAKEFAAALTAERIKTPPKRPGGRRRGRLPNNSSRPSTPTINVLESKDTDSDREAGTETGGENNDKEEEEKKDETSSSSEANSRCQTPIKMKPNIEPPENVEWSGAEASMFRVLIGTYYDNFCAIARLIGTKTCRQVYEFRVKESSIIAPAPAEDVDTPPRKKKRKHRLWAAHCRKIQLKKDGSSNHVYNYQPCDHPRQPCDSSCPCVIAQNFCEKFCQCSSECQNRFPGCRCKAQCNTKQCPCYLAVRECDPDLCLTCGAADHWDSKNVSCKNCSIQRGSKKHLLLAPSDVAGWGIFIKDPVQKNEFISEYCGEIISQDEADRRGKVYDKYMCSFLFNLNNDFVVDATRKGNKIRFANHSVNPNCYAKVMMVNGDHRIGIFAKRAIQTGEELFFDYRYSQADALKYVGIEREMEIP

[7] = target: T1, Histone-lysine N-methyltransferase EZH2; test: Inhibition of methyltransferase activity of human EZH2 using chicken oligonucleosomes as substrate up to 10 uM by pull down assay
Target sequence in this assay (Q15910 whole entry, looked up): as the sequence (Q15910 whole entry) above

A clearance [1] of 49 mL/min/kg, an AUC [2] of 680 ng·h/mL and a Vd [3] of 0.45 L/kg were found for CCN(c1cc(Cl)cc(C(=O)NCc2c(C)cc(C)[nH]c2=O)c1C)C1CCOCC1 in this work. The bioavailability [4] was 1.6%.

A clearance [1] of 13 mL/min/kg, an AUC [2] of 2500 ng·h/mL and a Vd [3] of 1 L/kg were found for CCN(c1cc(-c2ccc(CN3CCOCC3)cc2)cc(C(=O)NCc2c(C)cc(C)[nH]c2=O)c1C)C1CCOCC1 [TAZEMETOSTAT] in this work. It also gave a bioavailability [4] of 55%.

For Cc1cc(C)c(CNC(=O)c2cc(-c3ccc(CN4CCOCC4)cc3)nc3c2cnn3C(C)C)c(=O)[nH]1, the solubility ([5]; buffer) was “soluble”, the clearance [1] was 35 mL/min/kg and the AUC [2] was 950 ng·h/mL. The Vd [3] was 1.5 L/kg and the bioavailability [4] was 41%.

In the case of COc1cc(C(=O)NCc2c(C)cc(C)[nH]c2=O)c2cnn(C(C)C)c2n1, the solubility ([5]; buffer) was “soluble” and the pIC50 [6] was 5.62.

A pIC50 [6] of under 4.30 was found for Cc1cc(C)c(CNC(=O)c2ccc3cnn(C(C)C)c3c2)c(=O)[nH]1 in this work.

For Cc1cc(C)c(CNC(=O)c2cc(C3=CC(C)(C)NC(C)(C)C3)nc3c2cnn3C(C)C)c(=O)[nH]1, the solubility ([5]; buffer) was “soluble” and the pIC50 [6] was 6.52.

A pIC50 [6] of under 4.30 was found for Cc1cc(C)c(CNC(=O)c2cccc3c2nnn3C(C)C)c(=O)[nH]1 in this work.

A pIC50 [6] of 5.66 was found for Cc1cc(C)c(CNC(=O)c2cc(Br)nc3c2cnn3C2CCNCC2)c(=O)[nH]1 in this work.

In the case of Cc1cc(C)c(CNC(=O)c2ccnc3c2cnn3C(C)C)c(=O)[nH]1, the solubility ([5]; buffer) was “soluble” and the pIC50 [6] was 5.51.

A pIC50 [6] of 4.41 was found for Cc1cc(C)c(CNC(=O)c2cc(C3=CC(C)(C)NC(C)(C)C3)nc3c2cnn3C)c(=O)[nH]1 in this work.

For Cc1cc(C)c(CNC(=O)c2cc(C(C)C)nc3c2cnn3C(C)C)c(=O)[nH]1, the solubility ([5]; buffer) was “soluble” and the pIC50 [6] was 5.64.

In the case of Cc1cc(C)c(CNC(=O)c2cc(-c3ccc(N4CCNCC4)nc3)nc3c2cnn3C(C)C)c(=O)[nH]1, the solubility ([5]; buffer) was “soluble” and the pIC50 [6] was 6.70.

A solubility ([5]; aqueous, read-out: solubility) of under 10 µM and a pIC50 [6] of 5.47 were found for Cc1cc(C)c(CNC(=O)c2cc(C)n(C3CCCCC3)c2C)c(=O)[nH]1 in this work.

A pIC50 [6] of 5.96 was found for Cc1cc(C)c(CNC(=O)c2cccc3c2cnn3C(C)C)c(=O)[nH]1 in this work.

A pIC50 [6] of 6.15 was found for Cc1cc(C)c(CNC(=O)c2cc(Br)nc3c2cnn3C2CCOCC2)c(=O)[nH]1 in this work.

A pIC50 [6] of 6.70 was found for CCN(c1ccc(Cl)c(C(=O)N(C)Cc2c(C)cc(C)[nH]c2=O)c1C)C1CCOCC1 in this work.

A pIC50 [6] of under 4.30 was found for Cc1cc(C)c(CNC(=O)c2cccc3c2ncn3C(C)C)c(=O)[nH]1 in this work.

A clearance [1] of 18 mL/min/kg, an AUC [2] of 46 ng·h/mL and a Vd [3] of 0.97 L/kg were found for Cc1cc(C)c(CNC(=O)c2cc(Br)cc(N(C)C3CCCC3)c2C)c(=O)[nH]1 in this work. The bioavailability [4] was 2%.

A pIC50 [6] of 5.30 was found for CCn1ncc2c(C(=O)NCc3c(C)cc(C)[nH]c3=O)cc(C3=CC(C)(C)NC(C)(C)C3)nc21 in this work.

A pIC50 [6] of 7.30 was found for Cc1cc(C)c(CNC(=O)c2cc(Br)nc3c2cnn3C2CCN(C(=O)N(C)C)CC2)c(=O)[nH]1 in this work.

A pIC50 [6] of 4.85 was found for CCN(c1cc(Cl)cc(C(=O)NCc2c(C)cc(C)[nH]c2=O)c1)C1CCOCC1 in this work.

With Cc1cc(C)c(CNC(=O)c2cc(Br)nc3c2cnn3C(C)C)c(=O)[nH]1 the solubility ([5]; buffer) was “soluble” and the pIC50 [6] was 6.05.

A pIC50 [6] of 5.22 was found for Cc1cc(C)c(CNC(=O)c2ccc3cnn(C4CCCC4)c3c2C)c(=O)[nH]1 in this work.

A pIC50 [6] of 5.51 was found for Cc1cc(C)c(CNC(=O)c2cccc3c2ccn3C(C)C)c(=O)[nH]1 in this work.

A pIC50 [6] of 7.30 was found for Cc1cc(C)c(CNC(=O)c2cc(Br)nc3c2cnn3C2CCN(C(=O)C(C)(C)C)CC2)c(=O)[nH]1 in this work.

A pIC50 [6] of 6.30, a clearance [1] of 24 mL/min/kg and an AUC [2] of 700 ng·h/mL were found for Cc1cc(C)c(CNC(=O)c2cc(-c3ccc4c(c3)OCCO4)nc3c2cnn3C(C)C)c(=O)[nH]1 in this work. The Vd [3] was 1.3 L/kg and the bioavailability [4] was 0.5%.

A clearance [1] of 90 mL/min/kg, an AUC [2] of 350 ng·h/mL and a Vd [3] of 2.7 L/kg were found for Cc1cc(C)c(CNC(=O)c2cc(Br)cc(N(C)C3CCOCC3)c2C)c(=O)[nH]1 in this work. It also gave a bioavailability [4] of 18%.

In the case of Cc1cc(C)c(CNC(=O)c2cc(N3CCNCC3)nc3c2cnn3C(C)C)c(=O)[nH]1, the solubility ([5]; buffer) was “soluble” and the pIC50 [6] was 5.80.

A pIC50 [6] of 4.66 was found for Cc1cc(C)c(CNC(=O)c2ccc3c(cnn3C(C)C)c2)c(=O)[nH]1 in this work.

A pIC50 [6] of 6.70 was found for Cc1cc(C)c(CNC(=O)c2cc(Br)nc3c2cnn3C2CCN(C(=O)OC(C)(C)C)CC2)c(=O)[nH]1 in this work.

A clearance [1] of 11 mL/min/kg, an AUC [2] of 2900 ng·h/mL and a Vd [3] of 0.49 L/kg were found for Cc1cc(C)c(CNC(=O)c2cc(-c3ccc(CN4CCOCC4)cc3)cc3c2cnn3C2CCCC2)c(=O)[nH]1 in this work. For the same compound, the bioavailability [4] was 47%.

A clearance [1] of 16 mL/min/kg, an AUC [2] of 2500 ng·h/mL and a Vd [3] of 0.66 L/kg were found for Cc1cc(C)c(CNC(=O)c2cc(-c3ccc(CN4CCOCC4)cc3)cc(N(C)C3CCCC3)c2C)c(=O)[nH]1 in this work. The bioavailability [4] was 24%.

A pIC50 [6] of under 4.30 was found for Cc1cc(C)c(CNC(=O)c2ccc3cnn(C4CCCC4)c3c2)c(=O)[nH]1 in this work.

For CCN(c1cc(Cl)cc(C(=O)NCc2c(C)cc(C)nc2OC)c1C)C1CCOCC1, the pIC50 [6] was under 5.00 and the inhibition [7] was “inactive”.
